From PMC7281150, “Inspired by Sea Urchins: Warburg Effect Mediated Selectivity of Novel Synthetic Non-Glycoside 1,4-Naphthoquinone-6S-Glucose Conjugates in Prostate Cancer” (Marine Drugs, 2020)

Test system: 22Rv1 cells
Experiment: Analysis of mitochondrial membrane potential (JC-1, FACS)
Format: cell-based, human
Conditions: 22Rv1, 50 µM, 2 h
Description: The drop down of mitochondrial membrane potential (ΔΨm) was measured using staining with ΔΨm-sensitive JC-1 dye (5,5′,6,6′-Tetrachloro-1,1′,3,3′-tetraethyl-imidacarbocyanine iodide) and flow cytometry technique. Cells (10^5 cells/well) were seeded in 12-well plates and incubated overnight. […] The cells were trypsinized, pelleted, resuspended in 100 µL of 2 µM JC-1/PBS, incubated for 1 h (37 °C, 5% CO2, in the dark), and analyzed by flow cytometry technique.

| SMILES | cells containing depolarized mitochondria (JC-1) |
| --- | --- |
| N#CC(C#N)=NNc1cccc(Cl)c1 [CCCP, 2-[2-(3-chlorophenyl)hydrazinylyidene]propanedinitrile, reference compound] | 94±0.3% |

Same assay, conditions: 22Rv1, 50 µM, 48 h

| SMILES | cells containing depolarized mitochondria (JC-1) |
| --- | --- |
| N#CC(C#N)=NNc1cccc(Cl)c1 [CCCP, 2-[2-(3-chlorophenyl)hydrazinylyidene]propanedinitrile, reference compound] | 92.1±1.8% |

Test system: 22Rv1 cells
Experiment: Analysis of intracellular ROS level (CM-H2DCFDA, FACS)
Format: cell-based, human
Conditions: 22Rv1, 200 μM, 2 h
Description: Intracellular ROS levels were accessed using the ROS-sensitive CM-H2DCFDA reagent (Cat. No. C6827, Molecular probes, Invitrogen, Eugene, OR, USA). The experiment was performed as previously described with slight modifications. In brief, 22Rv1 cells (10^5 cells/well) were seeded in 12-well plates and incubated overnight. The media was changed with freshly made pre-warmed staining solution (4 µM CM-H2DCFDA/PBS, 0.5 mL/well) and incubated in the dark (37 °C, 5% CO2) for 30 min. Then, the staining solution was exchanged with 1 mL/well of pre-warmed PBS containing the investigated compounds or H2O2 (positive control) at the indicated concentrations and the cells were incubated for 2 h. Next, the cells were trypsinized, resuspended in pre-warmed PBS (200 µL/sample) and immediately analyzed by FACS according to the manufacture′s protocol.

| SMILES | ROS level (CM-H2DCFDA, FACS) |
| --- | --- |
| OO [H2O2, reference compound] | 68.4±1.5% |

Test system: not given
Experiment: not given
Conditions: not given

| SMILES | melting point |
| --- | --- |
| CC(=O)O[C@@H]1O[C@H](CSC2=CC(=O)c3c(O)ccc(O)c3C2=O)[C@@H](OC(C)=O)[C@H](OC(C)=O)[C@H]1OC(C)=O [SAB-21, 2-(1,2,3,4-Tetra-O-acetyl-6-deoxy-β-D-glucopyranos-6-ylthio)-5,8-dihydroxy-1,4-naphthoquinone] | 207 to 210 °C |
| CC(=O)Oc1cccc2c1C(=O)C=C(SC[C@H]1O[C@@H](OC(C)=O)[C@H](OC(C)=O)[C@@H](OC(C)=O)[C@@H]1OC(C)=O)C2=O [SAB-25, 2-(1,2,3,4-Tetra-O-acetyl-6-deoxy-β-D-glucopyranos-6-ylthio)-5-acetoxy-1,4-naphthoquinone] | 172 to 175 °C |
| CC(=O)O[C@@H]1O[C@H](CSC2=C(C)C(=O)c3c(O)cccc3C2=O)[C@@H](OC(C)=O)[C@H](OC(C)=O)[C@H]1OC(C)=O [SAB-7, 2-(1,2,3,4-Tetra-O-acetyl-6-deoxy-β-D-glucopyranos-6-ylthio)-5-hydroxy-3-methyl-1,4-naphthoquinone] | 160 to 161 °C |

Second part, the compound after the results:

| melting point | SMILES |
| --- | --- |
| 148 to 151 °C | CC(=O)O[C@@H]1O[C@H](CSc2c(C)c(O)c3c(c2O)C(=O)C(C)=C(C)C3=O)[C@@H](OC(C)=O)[C@H](OC(C)=O)[C@H]1OC(C)=O [SAB-15, 6-(1,2,3,4-Tetra-O-acetyl-6-deoxy-β-D-glucopyranos-6-ylthio)-5,8-dihydroxy-2,3,7-trimethyl-1,4-naphthoquinone] |
| 207 to 211 °C | CC(=O)O[C@@H]1O[C@H](CSc2c(C)c(O)c3c(c2O)C(=O)C(O)=C(O)C3=O)[C@@H](OC(C)=O)[C@H](OC(C)=O)[C@H]1OC(C)=O [SAB-3, 6-(1,2,3,4-Tetra-O-acetyl-6-deoxy-β-D-glucopyranos-6-ylthio)-2,3,5,8-tetrahydroxy-7-methyl-1,4-naphthoquinone] |
| 179 to 182 °C | CCc1c(O)c2c(c(O)c1SC[C@H]1O[C@@H](OC(C)=O)[C@H](OC(C)=O)[C@@H](OC(C)=O)[C@@H]1OC(C)=O)C(=O)C(C)=C(C)C2=O [SAB-17, 6-(1,2,3,4-Tetra-O-acetyl-6-deoxy-β-D-glucopyranos-6-ylthio)-7-ethyl-5,8-dihydroxy-2,3-dimethyl-1,4-naphthoquinone] |
| 202 to 205 °C | CC(=O)O[C@@H]1O[C@H](CSC2=C(SC[C@H]3O[C@@H](OC(C)=O)[C@H](OC(C)=O)[C@@H](OC(C)=O)[C@@H]3OC(C)=O)C(=O)c3c(O)c(C)c(C)c(O)c3C2=O)[C@@H](OC(C)=O)[C@H](OC(C)=O)[C@H]1OC(C)=O [SAB-9, 2,3-Di(1,2,3,4-tetra-O-acetyl-6-deoxy-β-D-glucopyranos-6-ylthio)-5,8-dihydroxy-6,7-dimethyl-1,4-naphthoquinone] |
| 156 to 159 °C | CC(=O)O[C@@H]1O[C@H](CSC2=C(Cl)C(=O)c3c(O)c(Cl)c(Cl)c(O)c3C2=O)[C@@H](OC(C)=O)[C@H](OC(C)=O)[C@H]1OC(C)=O [SAB-19, 2-(1,2,3,4-Tetra-O-acetyl-6-deoxy-β-D-glucopyranos-6-ylthio)-3,6,7-trichloro-5,8-dihydroxy-1,4-naphthoquinone] |
| 109 to 112 °C | COc1c(O)c2c(c(O)c1SC[C@H]1O[C@@H](OC(C)=O)[C@H](OC(C)=O)[C@@H](OC(C)=O)[C@@H]1OC(C)=O)C(=O)C(O)=CC2=O [SAB-5, 7-(1,2,3,4-Tetra-O-acetyl-6-deoxy-β-D-glucopyranos-6-ylthio)-2,5,8-trihydroxy-6-methoxy-1,4-naphthoquinone] |
| 167 to 171 °C | CCC1=C(O)C(=O)c2c(O)c(SC[C@H]3O[C@@H](OC(C)=O)[C@H](OC(C)=O)[C@@H](OC(C)=O)[C@@H]3OC(C)=O)c(OC)c(O)c2C1=O [SAB-11, 7-(1,2,3,4-Tetra-O-acetyl-6-deoxy-β-D-glucopyranos-6-ylthio)-3-ethyl-2,5,8-trihydroxy-6-methoxy-1,4-naphthoquinone] |
| 203 to 205 °C | CC(=O)O[C@@H]1O[C@H](CSC2=CC(=O)c3c(O)c(C)c(C)c(O)c3C2=O)[C@@H](OC(C)=O)[C@H](OC(C)=O)[C@H]1OC(C)=O [SAB-1, 2-(1,2,3,4-Tetra-O-acetyl-6-deoxy-β-D-glucopyranos-6-ylthio)-5,8-dihydroxy-6,7-dimethyl-1,4-naphthoquinone] |
